Experimental data published in publication PMC6152131, “Pharmacokinetic Study of Biotransformation Products from an Anxiolytic Fraction of Tilia americana” (Molecules : A Journal of Synthetic Chemistry and Natural …, 2017).

What was measured:
[1] = Stability of flavonoids and biotransformation products in mouse plasma under different handling conditions; type: in vitro ADME, mice; details: for Accuracy Bias 0 h / Observed Conc. 0 h / Accuracy Bias 8 h / Observed Conc. 8 h / Accuracy Bias 24 h / Observed Conc. 24 h: room temperature (25 °C); for Observed Conc. 0 h / Observed Conc. 8 h / Observed Conc. 24 h / Observed Conc. Autosampler (4 °C; 8 h) / Observed Conc. Long-term (−70 °C; 1 month): n = 6; for Accuracy Bias Autosampler (4 °C; 8 h) / Accuracy Bias Long-term (−70°C; 1 month) / Observed Conc. Autosampler (4 °C; 8 h) / Observed Conc. Long-term (−70 °C; 1 month): storage stability
Experimental: (§1) Plasma dried pulverized samples were extracted with methanol (HPLC grade, Merck). The extracts were filtered with Teflon membrane dimensions 0.45 μm by 13 mm (Millex®-LCR); 20 μL of each filtered sample was injected into the HPLC equipment. The measurements were performed in a (Waters corporation, Milford, CT, USA) 2695 HPLC with a diode array detector (Waters 2996) and processed with the Empower Pro 1.0 software. A Chromolith Performance® RP-18e 100 × 4.6 mm (Merck KGaA, Darmstadt, Germany) was used. The mobile phase consisted of a mixture of acetonitrile and water with the proportion 55:45 and a flow rate of 1 mL/min. The concentrations of the flavonoids and the biotransformation products were obtained by comparison with a pre-built calibration curve at λ = 220 nm.
[…] The investigation enclosed here expected manipulation conditions during all the sample storage and process periods, which included the stability data from the freeze/thaw, bench-top, autosampler, and long–term stability tests.
For all stability studies, fresh QC samples were evaluated by using a freshly prepared standard curve for the measurements. The concentrations obtained from all the stability studies were compared with the fresh QC samples, and the percentage concentration deviation was calculated. The analytes were considered stable in the mouse plasma when the concentration difference between the freshly prepared samples and the stability samples was less than 15%.

[2] = Plasma concentration after a single oral dose of the anxiolytic fraction (HPLC); type: in vivo, ICR mice; details: oral 200 mg/kg anxiolytic fraction, immediately after administration and over 24 h
Experimental: Eleven groups of ten animals each were randomly formed. All animals were orally administered with 200 mg/kg of the active fraction. Animals were anaesthetized with ether, and blood samples were obtained from the retroorbital sinus with a heparinized capillary, each group was examined at different times (0, 5, 10, 15, 30, 60, 120, 240, 480, 720, and 1440 min) after the active fraction was administered. […] Then the plasma samples were frozen and lyophilized. The dry plasma was subsequently used to extract and measure the concentration of the flavonoids and biotransformation products.
as §1
To evaluate the suitability of the assay for the pharmacokinetic studies, 200 mg/kg of the active fraction was orally administered to the animals. Ten animals were used in each group at different times (0, 5, 10, 15, 30, 60, 120, 240, 480, 720, and 1440 min). Pharmacokinetic calculations were performed using the observed data. All data was subsequently processed using the PKSolver add-in program for Microsoft Excel written in Visual Basic for Applications. All values obtained were expressed in mean ± standard deviation.

[3] = high nominal conc. (rutin 7.00; quercetin glucoside, quercitrin, tiliroside 44.37; kaempferol 4.50; m-HPAA, p-HPAA, DOPAC 31.25 µg/mL)
[4] = low nominal conc. (rutin 1.75; quercetin glucoside, quercitrin, tiliroside 11.02; kaempferol 1.12; m-HPAA, p-HPAA, DOPAC 1.95 µg/mL)
[5] = medium nominal conc. (rutin 3.50; quercetin glucoside, quercitrin, tiliroside 22.18; kaempferol 2.24; m-HPAA, p-HPAA, DOPAC 7.81 µg/mL)
[6] = high nominal conc. (7.00; 44.37; 4.50; 31.25 µg/mL)
[7] = low nominal conc. (1.75; 11.02; 1.12; 1.95 µg/mL)
[8] = medium nominal conc. (3.50; 22.18; 2.24; 7.81 µg/mL)

| Structure (SMILES) | Accuracy Bias 0 h ([1]; high nominal conc.) [%] | Observed Conc. 0 h [1, 3] [µg/mL] | Accuracy Bias 0 h ([1]; low nominal conc.) [%] | Observed Conc. 0 h [1, 4] [µg/mL] | Accuracy Bias 0 h ([1]; medium nominal conc.) [%] | Observed Conc. 0 h [1, 5] [µg/mL] | Accuracy Bias 8 h ([1]; high nominal conc.) [%] | Observed Conc. 8 h [1, 6] [µg/mL] | Accuracy Bias 8 h ([1]; low nominal conc.) [%] | Observed Conc. 8 h [1, 7] [µg/mL] | Accuracy Bias 8 h ([1]; medium nominal conc.) [%] | Observed Conc. 8 h [1, 8] [µg/mL] | Accuracy Bias 24 h ([1]; high nominal conc.) [%] | Accuracy Bias 24 h ([1]; low nominal conc.) [%] | Observed Conc. 24 h [1, 7] [µg/mL] | Accuracy Bias 24 h ([1]; medium nominal conc.) [%] | Observed Conc. 24 h [1, 8] [µg/mL] | Accuracy Bias Autosampler (4 °C; 8 h) ([1]; high nominal conc.) [%] | Observed Conc. Autosampler (4 °C; 8 h) [1, 6] [µg/mL] | Observed Conc. Long-term (−70 °C; 1 month) [1, 6] [µg/mL] | further results |
| --- | --- | --- | --- | --- | --- | --- | --- | --- | --- | --- | --- | --- | --- | --- | --- | --- | --- | --- | --- | --- | --- |
| O=c1c(O)c(-c2ccc(O)cc2)oc2cc(O)cc(O)c12 [Kaempferol, kaempferol] | −4.64 | 4.45 ± 0.41 | −3.29 | 1.16 ± 0.099 | 0.53 | 2.24 ± 0.20 | −1.74 | 4.32 ± 0.21 | −7.28 | 1.21 ± 0.83 | 4.60 | 2.15 ± 0.19 | 1.77 | −2.28 | 1.15 ± 0.098 | −8.12 | 2.42 ± 0.22 | 1.24 | 4.19 ± 0.37 | 4.35 ± 0.39 | Accuracy Bias Long-term (−70°C; 1 month) ([1]; high nominal conc.): −2.47%; Accuracy Bias Autosampler (4 °C; 8 h) ([1]; low nominal conc.): −7.77%; Accuracy Bias Long-term (−70°C; 1 month) ([1]; low nominal conc.): −2.77%; Observed Conc. Autosampler (4 °C; 8 h) [1, 7]: 1.21 ± 0.07 µg/mL; Observed Conc. Long-term (−70 °C; 1 month) [1, 7]: 1.15 ± 0.10 µg/mL; Accuracy Bias Autosampler (4 °C; 8 h) ([1]; medium nominal conc.): 0.50%; Accuracy Bias Long-term (−70°C; 1 month) ([1]; medium nominal conc.): 4.13%; Observed Conc. Autosampler (4 °C; 8 h) [1, 8]: 2.24 ± 0.20 µg/mL; Observed Conc. Long-term (−70 °C; 1 month) [1, 8]: 2.15 ± 0.19 µg/mL; flavonoids found in the plasma after oral administration [2]: not found |
| O=c1c(O[C@@H]2O[C@H](CO)[C@@H](O)[C@H](O)[C@H]2O)c(-c2ccc(O)c(O)c2)oc2cc(O)cc(O)c12 [Quercetin glucoside, quercetin glucoside] | 2.86 | 43.10 ± 2.20 | −1.24 | 11.16 ± 0.27 | 5.94 | 20.86 ± 1.35 | 4.28 | 42.48 ± 1.06 | 1.62 | 10.84 ± 0.67 | 6.02 | 20.84 ± 1.24 | 6.76 | −2.98 | 11.35 ± 0.61 | 7.83 | 20.44 ± 1.65 | −1.82 | 43.30 ± 2.02 | 41.60 ± 2.26 | Observed Conc. 24 h [1, 6]: 41.37 ± 1.17 µg/mL; Accuracy Bias Long-term (−70°C; 1 month) ([1]; high nominal conc.): −3.52%; Accuracy Bias Autosampler (4 °C; 8 h) ([1]; low nominal conc.): 2.40%; Accuracy Bias Long-term (−70°C; 1 month) ([1]; low nominal conc.): 6.22%; Observed Conc. Autosampler (4 °C; 8 h) [1, 7]: 11.22 ± 0.59 µg/mL; Observed Conc. Long-term (−70 °C; 1 month) [1, 7]: 11.41 ± 0.71 µg/mL; Accuracy Bias Autosampler (4 °C; 8 h) ([1]; medium nominal conc.): 5.48%; Accuracy Bias Long-term (−70°C; 1 month) ([1]; medium nominal conc.): 7.26%; Observed Conc. Autosampler (4 °C; 8 h) [1, 8]: 20.96 ± 1.31 µg/mL; Observed Conc. Long-term (−70 °C; 1 month) [1, 8]: 20.57 ± 2.06 µg/mL; flavonoids found in the plasma after oral administration [2]: not found |
| C[C@@H]1O[C@@H](Oc2c(-c3ccc(O)c(O)c3)oc3cc(O)cc(O)c3c2=O)[C@H](O)[C@H](O)[C@H]1O [Quercitrin, quercitrin] | 0.56 | 44.12 ± 2.82 | −2.26 | 11.27 ± 0.75 | −3.39 | 22.94 ± 1.87 | −1.33 | 44.96 ± 1.84 | −4.83 | 11.56 ± 0.78 | −2.11 | 22.65 ± 1.85 | 1.05 | 0.30 | 10.99 ± 0.72 | −4.15 | 23.11 ± 1.89 | −0.17 | 44.44 ± 4.52 | 44.17 ± 2.95 | Observed Conc. 24 h [1, 6]: 43.90 ± 1.61 µg/mL; Accuracy Bias Autosampler (4 °C; 8 h) ([1]; low nominal conc.): −5.47%; Observed Conc. Autosampler (4 °C; 8 h) [1, 7]: 11.62 ± 1.02 µg/mL; Observed Conc. Long-term (−70 °C; 1 month) [1, 7]: 11.64 ± 0.99 µg/mL; Accuracy Bias Autosampler (4 °C; 8 h) ([1]; medium nominal conc.): −2.73%; Observed Conc. Autosampler (4 °C; 8 h) [1, 8]: 22.79 ± 2.26 µg/mL; Observed Conc. Long-term (−70 °C; 1 month) [1, 8]: 22.49 ± 1.66 µg/mL; flavonoids found in the plasma after oral administration [2]: not found |
